Measured values reported in patent EP0677039B1, “CYCLOBUTANE DERIVATIVES AS INHIBITORS OF […] SYNTHETASE AND PROTEIN […]” (Abbott Laboratories, priority 1993, dated 1995).

target: T1, Rat liver microsomal squalene synthetase (Rattus norvegicus, UniProt Q02769); assay: In vitro inhibition of squalene synthetase; format: biochemical; conditions: 10 µM test compound; rat liver microsomes, labelled farnesyl pyrophosphate, 10 minutes at 37 °C; compared to controls with no test compound
T1 construct: Rat liver microsome, the source of enzyme; from tissue; host or cells: rat liver microsomes
T1 sequence (Q02769 1-416): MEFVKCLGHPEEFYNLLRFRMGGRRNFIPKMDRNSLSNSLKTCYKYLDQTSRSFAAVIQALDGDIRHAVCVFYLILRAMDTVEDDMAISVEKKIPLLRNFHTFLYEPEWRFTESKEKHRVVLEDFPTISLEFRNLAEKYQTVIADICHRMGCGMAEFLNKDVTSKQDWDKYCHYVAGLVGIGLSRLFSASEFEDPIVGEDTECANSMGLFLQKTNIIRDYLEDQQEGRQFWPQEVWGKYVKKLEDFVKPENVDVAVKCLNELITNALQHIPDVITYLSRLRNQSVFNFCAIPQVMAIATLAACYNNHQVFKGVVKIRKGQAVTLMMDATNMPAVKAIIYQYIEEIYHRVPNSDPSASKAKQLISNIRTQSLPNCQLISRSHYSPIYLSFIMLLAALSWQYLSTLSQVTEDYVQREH
Procedure: In vitro inhibition of squalene synthetase may be measured by the following procedure. Rat liver microsomal squalene synthetase activity was measured using farnesyl pyrophosphate as a substrate and quantitating squalene synthesis using labelled farnesyl pyrophosphate and counting the squalene formed. Rat liver microsome, the source of enzyme, was prepared according to the method of Gillies, P. J., et al., Exp. Molc. Pathol. 44: 329-339 (1986), a modification of the procedure of Erickson, S. K., and Cooper, A. D., Metabolism, 29: 991-996 (1980). […] Oxygen was excluded from the closed incubation tube by degassing with nitrogen. The reaction was terminated by the addition of ethanolic KOH and after degassing with N2, the microsomal membranes were solubilized by heating at 60 °C for 30 minutes. The squalene was extracted into hexane, and the squalene was separated from all other radioactive molecules by passage over an activated alumina column. […] The per cent inhibition at a dose of 10 µM (or 1 µM) compared to controls with no test compound was determined. […]

Compound	inhibition at 10 µM [%]
CCCN(Cc1ccc(Oc2ccccc2)cc1)C(=O)[C@H]1[C@@H](C(=O)O)[C@H](C(=O)O)[C@@H]1C(=O)NCc1ccc(Oc2ccccc2)cc1 [Example 64D, (1α,2β,3β,4α)-1-[N-Propyl-N-(4-phenoxybenzyl)aminocarbonyl]-2-[N-(4-phenoxybenzyl)aminocarbonyl]cyclobutane-3,4-dicarboxylic acid]	45
COc1ccc(CCN(Cc2ccc(Oc3ccccc3)cc2)C(=O)C2C(C(=O)O)C(C(=O)O)C2C(=O)N(CCc2ccc(OC)c(OC)c2)Cc2ccc(Oc3ccccc3)cc2)cc1OC (stereo not drawn) [Example 55, (1α,2β,3β,4α)-1,2-Di[N-(4-phenoxybenzyl)-N-(3,4-dimethoxyphenethyl)aminocarbonyl]cyclobutane-3,4-dicarboxylic acid]	78
CN(Cc1cccc(Oc2ccc(F)cc2)c1)C(=O)[C@H]1[C@@H](C(=O)O)[C@H](C(=O)O)[C@@H]1C(=O)N(C)Cc1cccc(Oc2ccc(F)cc2)c1 [Example 21, (1α,2β,3β,4α)-1,2-Di[N-methyl-N-(3-[4-fluorophenoxy]benzyl)aminocarbonyl]cyclobutane-3,4-dicarboxylic acid]	52
C#CCN(Cc1ccc(Oc2ccccc2)cc1)C(=O)[C@H]1[C@@H](C(=O)O)[C@H](C(=O)O)[C@@H]1C(=O)N(CC#C)Cc1ccc(Oc2ccccc2)cc1 [Example 27, (1α,2β,3β,4α)-1,2-Di[N-propargyl-N-(4-phenoxybenzyl)aminocarbonyl]cyclobutane-3,4-dicarboxylic acid]	79
O=C(O)[C@H]1[C@H](C(=O)O)[C@H](C(=O)N(CCCc2ccccc2)Cc2ccc(Oc3ccccc3)cc2)[C@H]1C(=O)N(CCCc1ccccc1)Cc1ccc(Oc2ccccc2)cc1 [Example 57, (1α,2β,3β,4α)-1,2-Di[N-(4-phenoxybenzyl)-N-(3-phenyl-1-propyl)aminocarbonyl]cyclobutane-3,4-dicarboxylic acid]	64
CN(Cc1cccc(Oc2ccccc2)c1)C(=O)[C@H]1[C@@H](C(=O)O)[C@H](C(=O)O)[C@@H]1C(=O)N(C)Cc1cccc(Oc2ccccc2)c1 [Example 18, (1α,2β,3β,4α)-1,2-Di[N-methyl-N-(3-phenoxybenzyl)aminocarbonyl]cyclobutane-3,4-dicarboxylic acid]	55
O=C(O)[C@H]1[C@H](C(=O)O)[C@H](C(=O)N(CC=CC=Cc2ccccc2)Cc2ccccc2)[C@H]1C(=O)N(CC=CC=Cc1ccccc1)Cc1ccccc1 [Example 36, (1α,2β,3β,4α)-1,2-Di[N-benzyl-N-(5-phenyl-2,4-pentadienyl)aminocarbonyl]cyclobutane-3,4-dicarboxylic acid]	63
CCCN(Cc1ccc(Cn2cccc2)cc1)C(=O)C1C(C(=O)O)C(C(=O)O)C1C(=O)N(CCC)Cc1ccc(Cn2cccc2)cc1 (stereo not drawn) [Example 86D, (1α,2β,3β,4α)-1,2-Di[N-propyl-N-(4,(pyrrol-1-ylmethyl)benzyl)aminocarbonyl]cyclobutane-3,4-dicarboxylic acid]	86
CCCN(Cc1ccc(Oc2ccccc2)cc1)C(=O)[C@@H]1[C@H](CC(=O)O)[C@@H](CC(=O)O)[C@H]1C(=O)N(CCC)Cc1ccc(Oc2ccccc2)cc1 (relative stereo) [Example 103B, (1α,2β,3β,4α)-1,2-Di[-N-propyl-N-(4-phenoxybenzyl)aminocarbonyl]cyclobutane-3-4-diacetic acid]	90
O=C(O)C1C(C(=O)O)C(C(=O)N(Cc2ccccc2)Cc2ccc(Cl)cc2)C1C(=O)N(Cc1ccccc1)Cc1ccc(Cl)cc1 (stereo not drawn) [Example 122B, (1α,2β,3β,4α)-1,2-Di[N-benzyl-N-(4-chlorobenzyl)aminocarbonyl]cyclobutane-3,4-dicarboxylic acid]	57

The next lines start with the values.

inhibition at 10 µM [%]	Compound
86	CCCN(Cc1ccc(Oc2ccc3ccccc3c2)cc1)C(=O)C1C(C(=O)O)C(C(=O)O)C1C(=O)N(CCC)Cc1ccc(Oc2ccc3ccccc3c2)cc1 (stereo not drawn) [Example 88, (1α,2β,3β,4α)-1,2-Di[N-propyl-N-(4-naphth-2-yloxybenzyl)aminocarbonyl]cyclobutane-3,4-dicarboxylic acid]
72	CCCN(Cc1ccc(Oc2cccc(C)c2)cc1)C(=O)C1C(C(=O)O)C(C(=O)O)C1C(=O)N(CCC)Cc1ccc(Oc2cccc(C)c2)cc1 (stereo not drawn) [Example 87B, (1α,2β,3β,4α)-1,2-Di{N-propyl-[4-(3'-methyl)phenoxybenzyl]aminocarbonyl}cyclobutane-3,4-dicarboxylic acid]
78	CCCN(Cc1ccc(Oc2ccccc2)cc1)C(=O)[C@@H]1[C@H](C(=O)O)[C@@H](C(=O)OC)[C@H]1C(=O)N(CCC)Cc1ccc(Oc2ccccc2)cc1 (relative stereo) [Example 95, (1α,2β,3β,4α)-1,2-Di[N-propyl-N-(4-phenoxybenzyl)aminocarbonyl]-3-(methoxycarbonyl)cyclobutane-4-carboxylic Acid]
77	CCCN(Cc1ccc(Oc2ccccc2)cc1)C(=O)C1C(C=NO)C(C(=O)O)C1C(=O)N(CCC)Cc1ccc(Oc2ccccc2)cc1 (stereo not drawn) [Example 71C, (1α,2β,3β,4α)-1,2-Di[N-propyl-N-(4-phenoxybenzyl)aminocarbonyl]-4-[(hydroxyimino)methyl]-cyclobutane-3-carboxylic acid]

same assay, conditions: values marked * in Table 1: 1 µM test compound; rat liver microsomes, labelled farnesyl pyrophosphate, 10 minutes at 37 °C

Compound	inhibition at 1 µM [%]
C[C@H](c1ccccc1)N(Cc1ccc(Oc2ccccc2)cc1)C(=O)[C@H]1[C@@H](C(=O)O)[C@H](C(=O)O)[C@@H]1C(=O)N(Cc1ccc(Oc2ccccc2)cc1)[C@H](C)c1ccccc1 [Example 35]	59
O=C(O)[C@H]1[C@H](C(=O)O)[C@H](C(=O)N(Cc2ccc(Oc3ccccc3)cc2)CC2CCCCC2)[C@H]1C(=O)N(Cc1ccc(Oc2ccccc2)cc1)CC1CCCCC1 [Example 31]	37
CCCN(Cc1ccc(Oc2ccccc2)cc1)C(=O)C1C(Cc2nn[nH]n2)C(C(=O)O)C1C(=O)N(CCC)Cc1ccc(Oc2ccccc2)cc1 (centres unmarked) [Example 73B]	75
O=C(O)C1C(C(=O)O)C(C(=O)N(Cc2ccc(Oc3ccccc3)cc2)CC2CC2)C1C(=O)N(Cc1ccc(Oc2ccccc2)cc1)CC1CC1 (single isomer, unassigned; (-)) [Example 129B, (-)-(1α,2β,3β,4α)-1,2-Di[N-cyclopropylmethyl-N-(4-phenoxybenzyl)aminocarbonyl]cyclobutane-3,4-dicarboxylic acid]	92

The remaining lines, values ahead:

inhibition at 1 µM [%]	Compound
75	CCCN(Cc1ccc(Oc2ccccc2)cc1)C(=O)C1C(C(=O)O)C(C(=O)N2CCCC2C(=O)O)C1C(=O)N(CCC)Cc1ccc(Oc2ccccc2)cc1 (stereo not drawn) [Example 107, (1α,2β,3β,4α)-1,2-Di[N-propyl-N-(4-phenoxybenzyl)aminocarbonyl]cyclobutane-3,4-dicarboxylic acid mono-d,l-Proline amide]
59	CCCN(Cc1ccc(Oc2ccccc2)cc1)C(=O)C1C(C(=O)O)C(C(=O)N(C)CC(=O)O)C1C(=O)N(CCC)Cc1ccc(Oc2ccccc2)cc1 (stereo not drawn) [Example 108, (1α,2β,3β,4α)-1,2-Di[N-propyl-N-(4-phenoxybenzyl)aminocarbonyl]cyclobutane-3,4-dicarboxylic acid mono-Sarcosine amide]
47	O=C(O)C1C(C(=O)O)C(C(=O)N(CCF)Cc2ccc(Oc3ccccc3)cc2)C1C(=O)N(CCF)Cc1ccc(Oc2ccccc2)cc1 (stereo not drawn) [Example 43, (1α,2β,3β,4α)-1,2-Di[N-(2-fluoroethyl)-N-(4-phenoxybenzyl)aminocarbonyl]cyclobutane-3,4-dicarboxylic acid]
68	CCCN(Cc1ccc(Oc2ccccc2)cc1)C(=O)CC1C(CC(=O)N(CCC)Cc2ccc(Oc3ccccc3)cc2)C(C(=O)O)C1C(=O)O (stereo not drawn) [Example 127C, (1α,2β,3β,4α)-1,2-Di-[N-propyl-N-(4-phenoxybenzyl)aminocarbonylmethyl]-cyclobutane-3,4-dicarboxylic acid]
51	CCCN(Cc1ccc(Oc2ccccc2)cc1)C(=O)C1C(C(=O)O)C(c2nn[nH]n2)C1C(=O)N(CCC)Cc1ccc(Oc2ccccc2)cc1 (centres unmarked) [Example 72C]
73	CCCN(Cc1ccc(Oc2ccccc2)cc1)C(=O)C1C(NC(=O)CCC(=O)O)C(C(=O)O)C1C(=O)N(CCC)Cc1ccc(Oc2ccccc2)cc1 (stereo not drawn) [Example 75B, (1α,2β,3β,4α)-1,2-Di[N-propyl-N-(4-phenoxybenzyl)aminocarbonyl]-4-(3-carboxypropionylamino)cyclobutane-3-carboxylic acid]
80	CCCN(Cc1ccc(Oc2ccccc2)cc1)C(=O)C1C(C(=O)O)C(C(=O)Nc2nnn[nH]2)C1C(=O)N(CCC)Cc1ccc(Oc2ccccc2)cc1 (stereo not drawn) [Example 92B, (1α,2β,3β,4a)-1,2-Di[N-propyl-N-(4-phenoxybenzyl)aminocarbonyl]cyclobutane-3-[N-(5-tetrazolyl)]carboxamide-4-carboxylic acid]
57	CCCN(Cc1ccc(Oc2ccccc2)cc1)C(=O)C1C(C=CC(=O)O)C(C(=O)O)C1C(=O)N(CCC)Cc1ccc(Oc2ccccc2)cc1 (centres unmarked) [Example 76B]
